For the assay, the system named is Neisseria gonorrhoeae. As to the kind of experiment: EC50 determination: plate-based broth growth assay (absorbance at 600 nm) of Neisseria gonorrhoeae. In kind it is cell-based. The settings on record: absorbance 600 nm after 20 hours at 37° C./5% CO2, read-out: IC50 (Inhibitory concentration) against Neisseria gonorrhoeae. The method in brief: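 Mid-log culture diluted to ~10^5 cells/ml as inoculum and grown 20 hours at 37° C./5% CO2 across a 10-point compound dilution series. Growth read as absorbance at 600 nm; EC50 taken from transformed data as the concentration giving 50% response relative to no-compound controls.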
Regarding `OCc1ccc2nc(Nc3nnco3)oc2c1` [Example 181, (2-((1,3,4-Oxadiazol-2-yl)amino)ben-zo[d]oxazol-6-yl)methanol], the IC50 is at most 10000 nM. As for `O=C(O)c1nc(Nc2nc3ccc(Cl)cc3o2)co1` [Example 182, 4-((6-chlorobenzo [d]oxazol-2-yl)amino)oxa-zole-2-carboxylic acid], the IC50 was at most 100000 nM.

For the molecule `c1nnc(Nc2nc3ccc(N4CCCC4)cc3o2)o1` [Example 183, N-(1,3,4-oxadiazol-2-yl)-6-(pyrrolidin-1-yl)benzo[d]ox-azol-2-amine], the IC50 is at most 1000 nM. On to `c1nnc(Nc2nc3ccc(N4CCCCC4)cc3o2)o1` [Example 184, N-(1,3,4-Oxadiazol-2-yl)-6-(piperidin-1-yl)benzo[d]ox-azol-2-amine], for which the IC50 is at most 1000 nM.

In the case of `c1nnc(Nc2nc3ccc(N4CCOCC4)cc3o2)o1` [Example 185, 6-Morpholino-N-(1,3,4-oxadiazol-2-yl)benzo[d]ox-azol-2-amine], the IC50 is at most 10000 nM. Turning to `O=[N+]([O-])c1ccc2nc(Nc3nnco3)oc2c1` [Example 186, 6-Nitro-N-(1,3,4-oxadiazol-2-yl)benzo[d]ox-azol-2-amine], the IC50 is at most 10000 nM. With `Cc1cc2oc(Nc3nnco3)nc2cc1Cl` [Example 187, 5-Chloro-6-methyl-N-(1,3,4-oxadiazol-2-yl)benzo[d]ox-azol-2-amine], the IC50 was at most 100 nM. In the case of `Cc1cc2nc(Nc3nnco3)oc2cc1Cl` [Example 188, 6-Chloro-5-methyl-N-(1,3,4-oxadiazol-2-yl)benzo[d]ox-azol-2-amine], the IC50 was at most 100 nM. Consider `Cc1cc(Cl)cc2oc(Nc3nnco3)nc12` [Example 189, 6-Chloro-4-methyl-N-(1,3,4-oxadiazol-2-yl)benzo[d]ox-azol-2-amine], for which the IC50 was at most 100 nM. Under `COc1cc2oc(Nc3nnco3)nc2cc1Cl` [Example 190, 5-Chloro-6-methoxy-N-(1,3,4-oxadiazol-2-yl)benzo[d]ox-azol-2-amine] stands at most 100 nM. For `FC(F)(F)Oc1cc2oc(Nc3nnco3)nc2cc1Cl` [Example 191], the IC50 was at most 100 nM. As to `O=C(O)c1ccc2nc(Nc3nnco3)oc2c1` [Example 192, 2-((1,3,4-oxadiazol-2-yl)amino)benzo[d]oxazole-6-carboxylic acid], the IC50 is at most 10000 nM. Regarding `COCCOc1ccc2nc(Nc3nnco3)oc2c1` [Example 193, 6-(2-methoxyethoxy)-N-(1,3,4-oxadiazol-2-yl)benzo[d]oxazol-2-amine], the IC50 was at most 1000 nM. In the case of `C#Cc1nnc(Nc2nc3ccc(Cl)cc3o2)o1` [Example 194, 6-Chloro-N-(5-ethynyl-1,3,4-oxadiazol-2-yl)benzo[d]oxazol-2-amine], the IC50 was at most 100 nM.

In the case of `Nc1ccc2nc(Nc3nnco3)oc2c1` [Example 195, N^2-(1,3,4-oxadiazol-2-yl)benzo[d]oxazole-2,6-diamine], the IC50 was at most 10000 nM. Then `CC(C)Oc1ccc2nc(Nc3nnco3)oc2c1` [Example 196, 6-Isopropoxy-N-(1,3,4-oxadiazol-2-yl)benzo[d]oxazol-2-amine], with at most 100000 nM; and `Cc1cc2oc(Nc3nnco3)nc2cc1F` [Example 197, 5-Fluoro-6-methyl-N-(1,3,4-oxadiazol-2-yl)benzo[d]oxazol-2-amine], with at most 100 nM; and `Clc1ccc2nc(Nc3nnc(N4CCCC4)o3)oc2c1` [Example 198, 6-Chloro-N-(5-(pyrrolidin-1-yl)-1,3,4-oxadiazol-2-yl)benzo[d]oxa-zol-2-amine], with at most 10000 nM. With `Clc1ccc2nc(Nc3nnc(C4CCOC4)o3)oc2c1` (stereo not drawn) [Example 199, 6-Chloro-N-(5-(tetrahydrofuran-3-yl)-1,3,4-oxadiazol-2-yl)benzo[d]oxa-zol-2-amine], the IC50 is at most 1000 nM.

As to `NC(=O)c1nnc(Nc2nc3ccc(Cl)cc3o2)o1` [Example 200, 5-((6-Chlorobenzo[d]oxazol-2-yl)amino)-1,3,4-oxadiazole-2-carboxamide], the IC50 is at most 100000 nM. With `NC(=O)c1nnc(Nc2nc3ccc(F)cc3o2)o1` [Example 201, 5-((6-Fluorobenzo[d]oxazol-2-yl)amino)-1,3,4-oxadiazole-2-carboxamide], the IC50 was at most 100000 nM.

Take `NC(=O)c1nnc(Nc2nc3cc(F)ccc3o2)o1` [Example 202, 5-((5-Fluorobenzo[d]oxazol-2-yl)amino)-1,3,4-oxadiazole-2-carboxamide]: the IC50 was at most 200000 nM. As to `Cc1cc2nc(Nc3nnco3)oc2cc1F` [Example 203, 6-Fluoro-5-methyl-N-(1,3,4-oxadiazol-2-yl)benzo[d]oxa-zol-2-amine], the IC50 is at most 100 nM. Under `COc1cc2nc(Nc3nnco3)oc2cc1Cl` [Example 204, 6-chloro-5-methoxy-N-(1,3,4-oxadiazol-2-yl)benzo[d]oxa-zol-2-amine] stands at most 1000 nM; under `FC(F)(F)Oc1cc2nc(Nc3nnco3)oc2cc1Cl` [Example 205, 6-Chloro-N-(1,3,4-oxadiazol-2-yl)-5-(trifluoro-methoxy)benzo [d]ox-azol-2-amine], at most 1000 nM; under `COc1cc2oc(Nc3nnco3)nc2cc1F` [Example 206, 5-Fluoro-6-methoxy-N-(1,3,4-oxadiazol-2-yl)benzo[d]oxa-zol-2-amine], at most 1000 nM.

For the molecule `Fc1cc2oc(Nc3nnco3)nc2cc1OC(F)(F)F` [Example 207, 6-Fluoro-N-(1,3,4-oxadiazol-2-yl)-5-(trifluoromethoxy) benzo[d]ox-azol-2-amine], the IC50 was at most 100 nM.

As for `COc1cc2oc(Nc3nnco3)nc2cc1C` [Example 208, 6-Methoxy-5-methyl-N-(1,3,4-oxadiazol-2-yl)benzo[d]oxa-zol-2-amine], the IC50 is at most 1000 nM. As for `COc1cc2nc(Nc3nnco3)oc2cc1F` [Example 209, 6-Fluoro-5-methoxy-N-(1,3,4-oxadiazol-2-yl)benzo[d]oxa-zol-2-amine], the IC50 was at most 1000 nM. Regarding `FC(F)(F)Oc1ccc2nc(Nc3nnco3)oc2c1` [Example 210, N-(1,3,4-Oxadiazol-2-yl)-6-(trifluoromethoxy) benzo[d]ox-azol-2-amine], the IC50 was at most 100 nM.

On to `CC(C)c1ccc2nc(Nc3nnco3)oc2c1` [Example 211, 6-Isopropyl-N-(1,3,4-oxadiazol-2-yl)benzo[d]oxa-zol-2-amine], for which the IC50 was at most 1000 nM.

On to `O=C1CCCN1c1ccc2nc(Nc3nnco3)oc2c1` [Example 212, 1-(2-((1,3,4-oxadiazol-2-yl)amino)benz-o[d]oxazol-6-yl)pyrrolidin-2-one], for which the IC50 is at most 100000 nM.

`Clc1ccc2nc(Nc3nnc(C4CCCO4)o3)oc2c1` (stereo not drawn) [Example 213, 6-Chloro-N-(5-(tetrahydrofuran-2-yl)-1,3,4-oxadiazol-2-yl)benzo[d]oxa-zol-2-amine]: the IC50 is at most 100 nM. Under `CC(C)c1nnc(Nc2nc3ccc(Cl)cc3o2)o1` [Example 214, 6-Chloro-N-(5-isopropyl-1,3,4-oxadiazol-2-yl)benzo[d]oxa-zol-2-amine] stands at most 100 nM. Then `CC(=O)N(C)c1ccc2nc(Nc3nnco3)oc2c1` [Example 215, N-(2-((1,3,4-Oxadiazol-2-yl)amino)benz-o[d]oxazol-6-yl)-N-methylacetamide], with at most 100000 nM; and `CCOC(=O)c1noc(Nc2nc3ccc(Cl)cc3o2)n1` [Example 216, Ethyl 5-((6-chlorobenzo[d]oxazol-2-yl)amino)-1,2,4-oxadiazole-3-carboxylate], with at most 1000 nM. Consider `N#Cc1nnc(Nc2nc3ccc(Cl)cc3o2)o1` [Example 217, 5-((6-Chlorobenzo[d]oxazol-2-yl)amino)-1,3,4-oxadiazole-2-carbonitrile], for which the IC50 was at most 100 nM. On to `N#Cc1nnc(Nc2nc3ccc(F)cc3o2)o1` [Example 218, 5-((6-Fluorobenzo[d]oxazol-2-yl)amino)-1,3,4-oxadiazole-2-carbonitrile], for which the IC50 was at most 1000 nM. In the case of `N#Cc1nnc(Nc2nc3cc(F)ccc3o2)o1` [Example 219, 5-((5-Fluorobenzo[d]oxazol-2-yl)amino)-1,3,4-oxadiazole-2-carbonitrile], the IC50 was at most 1000 nM. Then `Clc1cnc2nc(Nc3nnco3)oc2c1` [Example 220, 6-Chloro-N-(1,3,4-oxadiazol-2-yl)oxazolo[4,5-b]pyridin-2-amine], with at most 10000 nM.

With `Clc1ccc2nc(Nc3cocn3)oc2c1` [Example 221, 6-Chloro-N-(oxazol-4-yl)benzo[d]oxazol-2-amine], the IC50 is at most 1000 nM.

Take `Clc1ccc2nc(Nc3ccsn3)oc2c1` [Example 222, 6-Chloro-N-(isothiazol-3-yl)benzo[d]oxazol-2-amine]: the IC50 was at most 1000 nM. On to `O=C(O)c1nnc(Nc2nc3ccc(F)cc3o2)o1` [Example 223, Sodium 5-((6-fluorobenzo[d]oxazol-2-yl)amino)-1,3,4-oxadiazole-2-carboxylate], for which the IC50 is at most 100000 nM. As for `Clc1ccc2nc(Nc3ncno3)oc2c1` [Example 224, 6-chloro-N-(1,2,4-oxadiazol-5-yl)benzo[d]oxazol-2-amine], the IC50 was at most 100000 nM. Then `Clc1ccc2nc(Nc3cnoc3)oc2c1` [Example 225, 6-Chloro-N-(isoxazol-4-yl)benzo[d]oxazol-2-amine], with at most 100000 nM.
